Assay results: patent publication US20220304950A1, “[…] THE TREATMENT OF PATIENTS WITH MAJOR DEPRESSIVE DISORDER, INCLUDING SUICIDALITY” (JANSSEN PHARMACEUTICALS, INC., priority 2019, published 2022)

Key:
Assay type in all cases: in vivo, human
[1] = test system: adult patients with MDD assessed to be at imminent risk for suicide; test: Treatment disposition, Study 2 (Example 5); details: Esk 84 mg + SOC, double-blind phase, all randomized
Method: A total of 273 subjects were screened across 50 sites in 12 countries throughout the study period. Of those, 230 subjects were randomized to 1 of 2 treatment groups in a 1:1 ratio (115 in esketamine 84 mg+SOC and 115 in placebo+SOC). Randomization was stratified by study center and by the physician's assessment of the subject's need of standard of care antidepressant treatment (i.e., antidepressant monotherapy or an antidepressant plus augmentation therapy); the standard of care was determined prior to randomization on Day 1. […] The mean age was 40.8 years, ranging from 18 to 64 years.

[2] = test system: adult patients with MDD assessed to be at imminent risk for suicide; test: Treatment disposition, Study 1 (Example 4); details: Esk 84 mg + SOC, double-blind phase, all randomized
Method: A total of 270 subjects were screened across 51 sites in 10 countries throughout the study period. Of those, 226 subjects were randomized to 1 of 2 treatment groups in a 1:1 ratio (114 in esketamine 84 mg+SOC and 112 in placebo+SOC). The randomization was stratified by study center and by the physician's assessment of the participant's need of standard of care antidepressant treatment prior to randomization on Day 1 (i.e., antidepressant monotherapy or antidepressant plus augmentation therapy).

[3] = test system: adult patients with MDD assessed to be at imminent risk for suicide; test: MADRS total score, Study 1 (Example 4); details: for MADRS total score change, Diff. of LS Means (SE) vs placebo + SOC: ANCOVA LOCF; for MADRS total score change, LS mean difference Testing-Reference (MMRM): Esk 84 mg + SOC minus placebo + SOC; for MADRS total score, change from baseline to Day 2 (LOCF), mean (SD): negative = improvement
Source text: The primary efficacy evaluation will be the MADRS total score. The MADRS will be performed using the Structured Interview Guide for the Montgomery Asberg Depression Rating Scale. The MADRS is a clinician-rated scale designed to be used in subjects with MDD to measure depression severity and detect changes due to antidepressant treatment. The test consists of 10 items, each of which is scored from 0 (item not present or normal) to 6 (severe or continuous presence of the symptoms), for a total possible score of 60. Higher scores represent a more severe condition. The MADRS evaluates apparent sadness, reported sadness, inner tension, sleep, appetite, concentration, lassitude, interest level, pessimistic thoughts, and suicidal thoughts.
The typical recall period for the MADRS is 7 days. In this study, the MADRS will also be administered using a since last assessment recall, a 4-hour recall on Day 1 and Day 25 postdose, and a 24-hour recall on Day 2. For the MADRS performed at 4 hours postdose on Days 1 and 25, the MADRS scores for the sleep item recorded predose on the same day will be carried forward.
The primary efficacy analyses are based on the full efficacy analysis set which is defined as all randomized subjects who received at least 1 dose of double-blind study medication and have both a baseline and a post-baseline evaluation for the Montgomery Xsberg Depression Rating Scale (MADRS) total score or Clinical Global Impression-Severity of Suicidality-Revised (CGI-SS-R).
MADRS consists of 10 items that cover all of the core depressive symptoms: each item is scored from 0 (symptom is not present or is normal) to 6 (severe or continuous presence of the symptom). A total score (0 to 60) is calculated by summing the scores of all 10 items. A higher score represents a more severe condition.

[4] = test system: adult patients with MDD assessed to be at imminent risk for suicide; test: Adverse events (TEAEs, SAEs), Study 2 (Example 5)
Method: The primary objective is to compare the efficacy of ESK+SOC to that of PBO+SOC in reducing the symptoms of MDD, including suicidal ideation, as measured by the change from baseline on the MADRS total score at 24 hours post-first dose.

[5] = test system: adult patients with MDD assessed to be at imminent risk for suicide; test: CGI-SS-R subgroup analysis by prior suicide attempt, Examples 4 and 5; details: 24 hours after the first dose
Source text: FIG. 17 is a forest plot for the prior suicide attempt sub-group analysis using CGI-SS-R for Examples 4 and 5.
In certain aspects, the disclosure relates to methods for reducing symptoms of major depressive disorder, including suicidality, in a human patient assessed to be at imminent risk for suicide comprising the administration of esketamine in addition to standard of care treatment. As reflected in the reported data, for depressive symptoms, the treatment differences favored the administration of esketamine plus standard of care treatment over standard of care treatment alone. In addition, treatment differences between patients that previously attempted suicide (attempters) and those that had not (non-attempters) were also present (see, e.g., data reflected in FIGS. 9-17). […] Improvement in this population is of clinical relevance considering that prior suicide attempt has been identified as the single most important predictor/risk factor for suicide in subjects with MDD.

[6] = Esk 84 mg + SOC, 24 hours post first dose
[7] = Esk 84 mg + SOC, 24 hours post first dose, full efficacy analysis set
[8] = esketamine 84 mg+SOC, double-blind phase
[9] = esketamine 84 mg+SOC, safety set

`CN[C@]1(c2ccccc2Cl)CCCCC1=O` [esketamine, (S)-2-(2-chlorophenyl)-2-(methylamino)cyclohexanone] was tested, and the “Discontinuation due to adverse event, subjects %” value [1] was 7.8%, the “Discontinuation due to adverse event, subjects n” value [1] was 9 and the “Discontinuation due to adverse event, subjects %” value [2] was 4.4%. For the same molecule, the “Discontinuation due to adverse event, subjects n” value [2] was 5, the “Effect size for the primary endpoint (MADRS)” value ([3]; 24 hours post first dose) was 0.34 and the “MADRS total score change, Diff. of LS Means (SE) vs placebo + SOC” value ([3]; 24 hours post first dose) was −3.8 (1.39). The “MADRS total score change, Diff. of LS Means (SE) vs placebo + SOC” value ([3]; 24 hours post first dose, listed as Esk) was −3.8, the “MADRS total score, mean change from baseline (SD)” value ([3]; ESK+SOC) was −16.4 (11.95) and the “MADRS total score change, LS mean difference Testing-Reference (MMRM)” value ([3]; Day 1 (DB): 4 H) was −2.6. The “MADRS total score change, LS mean difference Testing-Reference (MMRM)” value ([3]; Day 2 (DB)) was −3.7, the “MADRS total score change, LS mean difference Testing-Reference (MMRM)” value ([3]; Day 4 (DB)) was −4.6 and the “MADRS total score change, LS mean difference Testing-Reference (MMRM)” value ([3]; Day 8 (DB)) was −2.5. The “MADRS total score change, LS mean difference Testing-Reference (MMRM)” value ([3]; Day 11 (DB)) was −2.8, the “MADRS total score change, LS mean difference Testing-Reference (MMRM)” value ([3]; Day 15 (DB)) was −1.5 and the “MADRS total score change, LS mean difference Testing-Reference (MMRM)” value ([3]; Day 18 (DB)) was −2.3. The “MADRS total score change, LS mean difference Testing-Reference (MMRM)” value ([3]; Day 22 (DB)) was −3.2, the “MADRS total score change, LS mean difference Testing-Reference (MMRM)” value ([3]; Day 25 (DB): 4 H) was −4.1 and the “MADRS total score change, LS mean difference Testing-Reference (MMRM)” value ([3]; Day 25 (DB): predose) was −2.6. For the same molecule, the “MADRS total score, change from baseline to Day 2 (LOCF), median” value [3, 6] was −15.0, the “MADRS total score, Day 2 (DB) LOCF, mean” value [3, 7] was 24.7 and the “MADRS total score, Day 2 (DB) LOCF, median” value [3, 7] was 26.0. For the same molecule, the “MADRS total score, change from baseline to Day 2 (LOCF), mean (SD)” value [3, 6] was −16.4 (11.95), the “MADRS total score, change from baseline to Day 2 (LOCF), mean (SD)” value ([3]; Esk 84 mg + SOC, 24 hours post first dose, listed as Esk) was −16.4 and the “MADRS total score change from baseline, LS mean (MMRM observed case)” value (“MADRS total score change from baseline” below) ([3]; Esk 84 mg + SOC, Day 1 (DB): 4 H) was −12.8. The “MADRS total score change from baseline” value ([3]; Esk 84 mg + SOC, Day 2 (DB)) was −15.7, the “MADRS total score change from baseline” value ([3]; Esk 84 mg + SOC, Day 4 (DB)) was −18.3 and the “MADRS total score change from baseline” value ([3]; Esk 84 mg + SOC, Day 8 (DB)) was −19.0. For the same molecule, the “MADRS total score change from baseline” value ([3]; Esk 84 mg + SOC, Day 11 (DB)) was −20.8, the “MADRS total score change from baseline” value ([3]; Esk 84 mg + SOC, Day 15 (DB)) was −21.6 and the “MADRS total score change from baseline” value ([3]; Esk 84 mg + SOC, Day 18 (DB)) was −23.1. The “MADRS total score change from baseline” value ([3]; Esk 84 mg + SOC, Day 22 (DB)) was −23.5, the “MADRS total score change from baseline” value ([3]; Esk 84 mg + SOC, Day 25 (DB): 4 H) was −28.8 and the “MADRS total score change from baseline” value ([3]; Esk 84 mg + SOC, Day 25 (DB): predose) was −24.3. The “Deaths during the study” value [4] was “no deaths”, the “Psychiatric SAEs related to suicidal ideation, suicide attempt, or worsening of depression, participants” value ([4]; ESK+SOC, 9-week follow-up phase) was 9 and the “SAE depersonalization/derealization disorder, participants” value ([4]; ESK+SOC, double-blind phase) was 1. The “SAE suicidal ideation, participants” value ([4]; ESK+SOC, double-blind phase) was 1, the “SAEs: suicide attempts, number” value ([4]; ESK+SOC, double-blind phase) was 3 and the “SAE acute stress disorder, participants” value ([4]; ESK+SOC, follow-up phase) was 1. The “SAE depression-related event, participants” value ([4]; ESK+SOC, follow-up phase) was 1, the “SAE hemothorax, participants” value ([4]; ESK+SOC, follow-up phase) was 1 and the “SAEs: suicidal ideation-related events, number” value ([4]; ESK+SOC, follow-up phase) was 3. For the same molecule, the “SAEs: suicide attempts, number” value ([4]; ESK+SOC, follow-up phase) was 4, the “Events in ESK+SOC participants considered related to study medication, number” value ([4]; ESK+SOC, kind of event not given) was 17 and the “Psychiatric SAEs related to suicidal ideation, suicide attempt, or worsening of depression, frequency” value ([4]; double-blind phase) was under 5%. The “Subjects with at least one TEAE, %” value [4, 8] was 91.2%, the “Subjects with serious TEAEs, %” value [4, 8] was 4.4% and the “TEAE Dissociation, subjects %” value [4, 8] was 38.6%. The “TEAE Dizziness, subjects %” value [4, 8] was 41.2%, the “TEAE Nausea, subjects %” value [4, 8] was 33.3% and the “TEAE dysgeusia, subjects %” value [4, 8] was 25.4%. For the same molecule, the “TEAE headache, subjects %” value [4, 8] was 21.9%, the “TEAE paraesthesia, subjects %” value [4, 8] was 20.2% and the “TEAE somnolence, subjects %” value [4, 8] was 22.8%. For the same molecule, the “Subjects with serious AEs, %” value ([4]; esketamine 84 mg+SOC, follow-up phase) was 10.1%, the “Study medication permanently stopped due to an adverse event, subjects %” value [4, 9] was 7.9% and the “Study medication permanently stopped due to an adverse event, subjects n” value [4, 9] was 9. For the same molecule, the “Overall safety and tolerability (in words)” value ([4]; intranasal ESK+SOC) was “safe and tolerated”, the “Odds ratio (95% CrI) for an improved CGI-SS-R score relative to placebo+SOC” value ([5]; subjects with history of prior suicide attempt (FIG. 17)) was 2.09 (1.06; 4.23) and the “Odds ratio (95% CrI) for an improved CGI-SS-R score relative to placebo+SOC” value ([5]; subpopulation without prior suicide attempt (FIG. 17)) was 1.14 (0.46; 2.83).
